Literature values, collected in PMC5063953 (Biochemical Pharmacology, 2016).
Like-named read-outs stand apart in the source and are kept apart here. No end group written: not given here.

Assays:
hVPAC2R = conditions: ref [35], cited from earlier work
hVPAC1R = conditions: cited from earlier work
hCRF-1R = conditions: ref [44], cited from earlier work
hGCGR = conditions: ref [15], cited from earlier work
rGCGR = conditions: ref [52], cited from earlier work
hSecR = conditions: cited from earlier work
rSecR = conditions: ref [14], cited from earlier work
SecR = conditions: R2.46A; ref [17]; cited from earlier work
hCLR-RAMP3 = conditions: ref [60], cited from earlier work
hCLR-RAMP2 = conditions: ref [60], cited from earlier work
hCLR-RAMP1 = conditions: cited from earlier work
oPTH-1R = conditions: ref [57], cited from earlier work

**Q.** What does the source list for vasoactive intestinal polypeptide [VIP]?
**A.** Effect compared with WT: cAMP potency (hVPAC2R; R6.37A): Reduced VIP mediated cAMP potency; Effect compared with WT: cAMP potency (hVPAC2R; R6.40A): Reduced VIP mediated cAMP potency; Effect compared with WT: cAMP production (hVPAC1R; E7.63A, ref [13]): Decreased VIP mediated cAMP production; Effect compared with WT: cAMP production (hVPAC1R; R6.37A, ref [13]): No effect on VIP mediated cAMP production; Effect compared with WT: IP3 production (hVPAC1R; R6.40A, ref [36]): Reduced VIP mediated IP3 production; Effect compared with WT: cAMP (hVPAC1R; R6.40A, ref [36]): no effect on cAMP; Effect compared with WT: cAMP production (hVPAC1R; Y3.53A, ref [55]): Reduced VIP mediated cAMP production; Effect compared with WT: cAMP (hVPAC1R; Y6.35A, ref [13]): No effect on VIP mediated cAMP

**Q.** Which “Effect compared with WT: cAMP potency (Gs)” value (hCRF-1R; K6.37A) does the source give for corticotropin-releasing factor [CRF] here?
**A.** The value was “Increased CRF mediated cAMP potency (Gs)”.

**Q.** What about the “Effect compared with WT: pERK1/2 (Gi)” value (hCRF-1R; K6.37A) of the same molecule?
**A.** Its value is “reduced pERK1/2 (Gi)”.

**Q.** For “glucagon: peptide agonist of the glucagon receptor”, which “Effect compared with WT: affinity” value (hGCGR; K4.64L) is on record?
**A.** Its value is “Reduced glucagon affinity”.

**Q.** And the “Effect compared with WT: expression and affinity” value (hGCGR; R3.30A)?
**A.** The value was “Reduced expression and glucagon affinity”.

**Q.** What about the “Effect compared with WT: expression and affinity” value (hGCGR; R5.40A) of the same molecule?
**A.** The value was “Reduced expression and glucagon affinity”.

**Q.** And the “Effect compared with WT: potency in CRE reporter activity assay” value (rGCGR; E7.63A)?
**A.** The value was “Enhanced basal activity and enhanced potency in glucagon mediated CRE reporter activity assay”.

**Q.** What about the “Effect compared with WT: potency in CRE reporter activity assay” value (rGCGR; N7.61A) of the same molecule?
**A.** The value was “Enhanced potency in glucagon mediated CRE reporter activity assay”.

**Q.** What about the “Effect compared with WT: CRE reporter activity” value (rGCGR; R6.37A) of the same molecule?
**A.** The value was “Enhanced glucagon mediated CRE reporter activity (potency and Emax)”.

**Q.** What does the source list for “secretin: agonist of the secretin receptor”?
**A.** Effect compared with WT: affinity or receptor expression (hSecR; R6.37A/K6.40A, ref [17]): no effect on affinity or receptor expression; Effect compared with WT: cAMP and calcium (hSecR; R6.37A/K6.40A, ref [17]): Reduced secretin mediated cAMP and calcium; Effect compared with WT: cAMP production (hSecR; R6.37A, ref [8]): No effect on secretin mediated cAMP production; Effect compared with WT: cAMP production (rSecR; R3.30A): Reduced secretin-mediated cAMP production; Effect compared with WT: cAMP potency (rSecR; R4.64A): Decreased secretin mediated cAMP potency.; Effect compared with WT: cAMP potency (SecR): not cAMP potency; Effect compared with WT: calcium potency (SecR): Decreased secretin mediated calcium potency

**Q.** Which “Effect compared with WT: cAMP production” value (hCLR-RAMP3; K3.30A) does the source give for “adrenomedullin: agonist at CLR-RAMP2 or CLR-RAMP3 complexes (YRQSMNNFQGLRSFGCRFGTCTVQKLAHQIYQFTDKDKDNVAPRSKISPQGY; ends and bridges not checked; cysteine pairing not given here; UniProt P35318 95-146, looked up)” here?
**A.** The value was “Reduced adrenomedullin cAMP production”.

**Q.** What about the “Effect compared with WT: cAMP production” value (hCLR-RAMP3; R4.64A) of the same molecule?
**A.** Its value is “Reduced adrenomedullin mediated cAMP production”.

**Q.** And the “function upon mutation of R4.64, in words” value (“function upon mutation” below) (hCLR-RAMP3; R4.64 mutated, [63])?
**A.** Its value is “altered adrenomedullin function”.

**Q.** And the “Effect compared with WT: cAMP production” value (hCLR-RAMP2; K3.30A)?
**A.** The value was “Reduced adrenomedullin cAMP production”.

**Q.** What about the “Effect compared with WT: cAMP production” value (hCLR-RAMP2; R4.64A) of the same molecule?
**A.** The value was “Reduced adrenomedullin mediated cAMP production”.

**Q.** What about the “function upon mutation” value (hCLR-RAMP2; R4.64 mutated, [63]) of the same molecule?
**A.** The value was “altered adrenomedullin function”.

**Q.** With calcitonin gene related peptide [CGRP] as the molecule, how does the “Effect compared with WT: cAMP potency” value (hCLR-RAMP1; E7.63A, ref [59]) read?
**A.** Its value is “Reduced CGRP-mediated cAMP potency”.

**Q.** And the “Effect compared with WT: cAMP pEC50” value (hCLR-RAMP1; H5.40A, ref [59])?
**A.** The value was “Reduced CGRP-mediated cAMP pEC50”.

**Q.** What about the “Effect compared with WT: cAMP production” value (hCLR-RAMP1; K3.30A, ref [59]) of the same molecule?
**A.** The value was “No effect on CGRP mediated cAMP production”.

**Q.** And the “Effect compared with WT: cAMP production” value (hCLR-RAMP1; K6.37A, ref [10])?
**A.** The value was “No effect on CGRP mediated cAMP production”.

**Q.** What about the “Effect compared with WT: affinity or cAMP production” value (hCLR-RAMP1; N2.52A, ref [59]) of the same molecule?
**A.** Its value is “No effect on CGRP affinity or cAMP production”.

**Q.** What about the “Effect compared with WT: cAMP production” value (hCLR-RAMP1; N5.56A, ref [59]) of the same molecule?
**A.** Its value is “No effect on CGRP cAMP mediated production”.

**Q.** What about the “Effect compared with WT: cAMP potency” value (hCLR-RAMP1; R2.46A, ref [59]) of the same molecule?
**A.** Its value is “Reduced CGRP mediated cAMP potency”.

**Q.** What about the “Effect compared with WT: cAMP pEC50” value (hCLR-RAMP1; R4.64A, ref [59]) of the same molecule?
**A.** The value was “Reduced CGRP mediated cAMP pEC50”.

**Q.** And the “function upon mutation” value (hCLR-RAMP1; R4.64 mutated, ref [60], [63])?
**A.** The value was “not CGRP function”.

**Q.** What about the “reduction in affinity compared with WT” value (hCLR-RAMP1; R6.40A, ref [10]) of the same molecule?
**A.** Its value is 5 fold.

**Q.** And the “reduction in cAMP production compared with WT” value (hCLR-RAMP1; R6.40A, ref [10])?
**A.** Its value is 30 fold.

**Q.** Which “Effect compared with WT: IP3 (Gq)” value (hCRF-1R; K6.40A) does the source give for “urocortin: agonist at hCRF-1R (DNPSLSIDLTFHLLRTLLELARTQSQRERAEQNRIIFDSV; ends and bridges not checked; UniProt P55089 83-122, looked up)” here?
**A.** Its value is “reduced IP3 (Gq)”.

**Q.** And the “Effect compared with WT: cAMP (Gs)” value (hCRF-1R; K6.40A)?
**A.** Its value is “Increased urocortin mediated cAMP (Gs)”.

B1: parathyroid hormone (peptide, UniProt P01270 32-115, looked up)
Parathyroid hormone: SVSEIQLMHNLGKHLNSMERVEWLRKKLQDVHNFVALGAPLAPRDAGSQRPRKKEDNVLVESHEKSLGEADKADVNVLTKAKSQ
modifications: Parathyroid hormone
**Q.** For B1, which “Effect compared with WT: cAMP” value (oPTH-1R; E7.63 K) is on record?
**A.** Its value is “No effect on PTH mediated cAMP”.

**Q.** What about the “Effect compared with WT: cAMP production” value (oPTH-1R; H2.52A) of the same molecule?
**A.** The value was “No effect on PTH-1 cAMP production”.

**Q.** What about the “Effect compared with WT: cAMP” value (oPTH-1R; R4.64A) of the same molecule?
**A.** Its value is “No effect on PTH mediated cAMP”.
